How the values were obtained:
RPMI-8226 = experiment: NCI-60 antiproliferative screening; type: cell-based; conditions: Homo sapiens, RPMI-8226, read-out: percent inhibition
HL60 = experiment: NCI-60 antiproliferative screening; type: cell-based; conditions: Homo sapiens, HL-60, read-out: percent inhibition
NCI-H522 = experiment: NCI-60 antiproliferative screening; type: cell-based; conditions: Homo sapiens, NCI-H522, read-out: percent inhibition
SK-OV-3 = experiment: NCI-60 antiproliferative screening; type: cell-based; conditions: Homo sapiens, SK-OV-3, read-out: percent inhibition
K-562 = experiment: NCI-60 antiproliferative screening; type: cell-based; conditions: Homo sapiens, K562, read-out: percent inhibition
HCT-116 = experiment: NCI-60 antiproliferative screening; type: cell-based; conditions: Homo sapiens, HCT-116, read-out: percent inhibition
HDAC3 = HDAC3 (Homo sapiens, UniProt O15379); experiment: In vitro HDAC enzyme assay; type: biochemical
HDAC3, sequence (O15379 whole entry): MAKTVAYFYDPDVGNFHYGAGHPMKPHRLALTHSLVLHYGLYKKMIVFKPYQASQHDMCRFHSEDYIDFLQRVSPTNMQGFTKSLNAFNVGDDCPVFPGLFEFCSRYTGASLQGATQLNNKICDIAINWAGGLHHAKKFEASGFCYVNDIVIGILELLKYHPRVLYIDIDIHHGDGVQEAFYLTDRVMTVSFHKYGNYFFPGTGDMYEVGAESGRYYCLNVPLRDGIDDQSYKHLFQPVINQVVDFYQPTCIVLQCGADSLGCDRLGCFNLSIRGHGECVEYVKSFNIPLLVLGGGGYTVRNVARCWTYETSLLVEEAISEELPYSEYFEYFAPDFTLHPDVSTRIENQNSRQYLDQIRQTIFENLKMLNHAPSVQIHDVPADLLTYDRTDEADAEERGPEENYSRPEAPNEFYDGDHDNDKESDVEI
HDAC3, sequence (Q9Y618 395-489 partner limits assumed): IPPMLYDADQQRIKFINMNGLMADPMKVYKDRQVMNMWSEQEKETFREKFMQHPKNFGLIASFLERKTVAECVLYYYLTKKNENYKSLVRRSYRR

HDAC7 = HDAC7 (Homo sapiens, UniProt Q8WUI4); experiment: In vitro HDAC enzyme assay; type: biochemical
HDAC7, sequence (Q8WUI4 whole entry): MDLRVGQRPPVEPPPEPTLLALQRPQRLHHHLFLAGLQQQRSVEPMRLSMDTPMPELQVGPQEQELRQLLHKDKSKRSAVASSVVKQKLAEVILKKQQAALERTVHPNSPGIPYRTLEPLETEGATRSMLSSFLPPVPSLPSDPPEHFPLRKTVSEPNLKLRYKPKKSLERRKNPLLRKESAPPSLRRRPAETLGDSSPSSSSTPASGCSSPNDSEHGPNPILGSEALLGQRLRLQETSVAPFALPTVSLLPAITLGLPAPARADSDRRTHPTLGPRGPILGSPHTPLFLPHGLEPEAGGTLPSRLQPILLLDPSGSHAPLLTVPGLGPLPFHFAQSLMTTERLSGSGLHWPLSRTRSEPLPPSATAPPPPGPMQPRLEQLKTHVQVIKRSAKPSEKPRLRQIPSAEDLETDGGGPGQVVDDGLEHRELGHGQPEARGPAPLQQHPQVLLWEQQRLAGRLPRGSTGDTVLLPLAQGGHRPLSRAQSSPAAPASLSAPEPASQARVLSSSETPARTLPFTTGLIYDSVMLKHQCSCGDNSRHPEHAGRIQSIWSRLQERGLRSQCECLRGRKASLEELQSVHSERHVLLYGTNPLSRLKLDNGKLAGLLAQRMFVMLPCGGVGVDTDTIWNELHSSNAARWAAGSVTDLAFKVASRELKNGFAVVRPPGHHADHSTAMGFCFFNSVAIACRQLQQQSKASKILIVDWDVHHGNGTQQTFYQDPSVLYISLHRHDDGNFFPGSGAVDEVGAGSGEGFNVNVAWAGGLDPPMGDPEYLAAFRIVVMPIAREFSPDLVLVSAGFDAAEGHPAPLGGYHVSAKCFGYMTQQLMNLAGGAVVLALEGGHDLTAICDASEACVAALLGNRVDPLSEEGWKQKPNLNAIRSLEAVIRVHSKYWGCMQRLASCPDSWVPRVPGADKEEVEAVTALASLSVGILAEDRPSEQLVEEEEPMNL

T-47D = experiment: NCI-60 antiproliferative screening; type: cell-based; conditions: Homo sapiens, T47D, read-out: percent inhibition
HT29 = experiment: NCI-60 antiproliferative screening; type: cell-based; conditions: Homo sapiens, HT-29, read-out: percent inhibition
ACHN = experiment: NCI-60 antiproliferative screening; type: cell-based; conditions: Homo sapiens, read-out: percent inhibition
SF-539 = experiment: NCI-60 antiproliferative screening; type: cell-based; conditions: Homo sapiens, SF-539, read-out: percent inhibition
NCI-H23 = experiment: NCI-60 antiproliferative screening; type: cell-based; conditions: Homo sapiens, NCI-H23, read-out: percent inhibition
HDAC4 = HDAC4 (Homo sapiens, UniProt P56524); experiment: In vitro HDAC enzyme assay; type: biochemical
HDAC4, sequence (P56524 whole entry): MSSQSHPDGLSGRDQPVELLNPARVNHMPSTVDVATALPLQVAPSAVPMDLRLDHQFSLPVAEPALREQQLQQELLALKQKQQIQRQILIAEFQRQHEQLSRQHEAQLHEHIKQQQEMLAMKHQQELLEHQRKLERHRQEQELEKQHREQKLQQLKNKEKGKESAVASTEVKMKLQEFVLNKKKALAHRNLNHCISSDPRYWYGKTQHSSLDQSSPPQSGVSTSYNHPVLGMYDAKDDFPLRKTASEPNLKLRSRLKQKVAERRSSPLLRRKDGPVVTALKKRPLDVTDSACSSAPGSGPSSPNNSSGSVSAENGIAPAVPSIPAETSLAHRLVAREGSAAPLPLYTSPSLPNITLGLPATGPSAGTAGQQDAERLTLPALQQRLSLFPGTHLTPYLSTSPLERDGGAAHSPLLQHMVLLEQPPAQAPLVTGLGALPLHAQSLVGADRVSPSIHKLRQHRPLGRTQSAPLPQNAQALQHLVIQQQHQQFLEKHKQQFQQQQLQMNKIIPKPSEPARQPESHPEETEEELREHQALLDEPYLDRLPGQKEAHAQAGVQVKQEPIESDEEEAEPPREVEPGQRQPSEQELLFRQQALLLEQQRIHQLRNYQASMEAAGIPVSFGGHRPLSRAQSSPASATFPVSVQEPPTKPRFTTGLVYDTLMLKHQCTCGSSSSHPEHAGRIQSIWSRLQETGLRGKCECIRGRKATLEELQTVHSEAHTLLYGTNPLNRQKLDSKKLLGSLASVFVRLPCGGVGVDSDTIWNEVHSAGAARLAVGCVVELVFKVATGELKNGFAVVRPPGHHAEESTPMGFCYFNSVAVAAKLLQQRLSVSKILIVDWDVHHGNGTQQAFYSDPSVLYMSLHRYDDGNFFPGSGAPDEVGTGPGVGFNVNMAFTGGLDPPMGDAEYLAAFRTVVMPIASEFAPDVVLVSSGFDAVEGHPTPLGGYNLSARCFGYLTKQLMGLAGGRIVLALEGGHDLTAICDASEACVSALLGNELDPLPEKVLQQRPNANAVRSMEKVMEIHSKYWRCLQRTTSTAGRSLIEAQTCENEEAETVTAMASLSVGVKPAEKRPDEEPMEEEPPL

SK-MEL-2 = experiment: NCI-60 antiproliferative screening; type: cell-based; conditions: Homo sapiens, SK-MEL-2, read-out: percent inhibition
[1] = tested on: fifty-nine cancer cell lines; experiment: NCI-60 antiproliferative screening, panel summary; type: cell-based; conditions: read-out: percent inhibition of 55 cell lines
SK-MEL-5 = experiment: NCI-60 antiproliferative screening; type: cell-based; conditions: Homo sapiens, SK-MEL-5, read-out: percent inhibition
LOX IMVI = experiment: NCI-60 antiproliferative screening; type: cell-based; conditions: Homo sapiens, read-out: percent inhibition
SNB-19 = experiment: NCI-60 antiproliferative screening; type: cell-based; conditions: Homo sapiens, SNB-19, read-out: percent inhibition
HCT-15 = experiment: NCI-60 antiproliferative screening; type: cell-based; conditions: Homo sapiens, HCT-15, read-out: percent inhibition
SK-MEL-28 = experiment: NCI-60 antiproliferative screening; type: cell-based; conditions: Homo sapiens, SK-MEL-28, read-out: percent inhibition
A549/ATCC = experiment: NCI-60 antiproliferative screening; type: cell-based; conditions: Homo sapiens, A549, read-out: percent inhibition
SN12C = experiment: NCI-60 antiproliferative screening; type: cell-based; conditions: Homo sapiens, read-out: percent inhibition
MALME-3M = experiment: NCI-60 antiproliferative screening; type: cell-based; conditions: Homo sapiens, read-out: percent inhibition
HCC-2998 = experiment: NCI-60 antiproliferative screening; type: cell-based; conditions: Homo sapiens, HCC 2998, read-out: percent inhibition
UO-31 = experiment: NCI-60 antiproliferative screening; type: cell-based; conditions: Homo sapiens, UO-31, read-out: percent inhibition
HDAC9 = HDAC9 (Homo sapiens, UniProt Q9UKV0); experiment: In vitro HDAC enzyme assay; type: biochemical
HDAC9, sequence (Q9UKV0 whole entry): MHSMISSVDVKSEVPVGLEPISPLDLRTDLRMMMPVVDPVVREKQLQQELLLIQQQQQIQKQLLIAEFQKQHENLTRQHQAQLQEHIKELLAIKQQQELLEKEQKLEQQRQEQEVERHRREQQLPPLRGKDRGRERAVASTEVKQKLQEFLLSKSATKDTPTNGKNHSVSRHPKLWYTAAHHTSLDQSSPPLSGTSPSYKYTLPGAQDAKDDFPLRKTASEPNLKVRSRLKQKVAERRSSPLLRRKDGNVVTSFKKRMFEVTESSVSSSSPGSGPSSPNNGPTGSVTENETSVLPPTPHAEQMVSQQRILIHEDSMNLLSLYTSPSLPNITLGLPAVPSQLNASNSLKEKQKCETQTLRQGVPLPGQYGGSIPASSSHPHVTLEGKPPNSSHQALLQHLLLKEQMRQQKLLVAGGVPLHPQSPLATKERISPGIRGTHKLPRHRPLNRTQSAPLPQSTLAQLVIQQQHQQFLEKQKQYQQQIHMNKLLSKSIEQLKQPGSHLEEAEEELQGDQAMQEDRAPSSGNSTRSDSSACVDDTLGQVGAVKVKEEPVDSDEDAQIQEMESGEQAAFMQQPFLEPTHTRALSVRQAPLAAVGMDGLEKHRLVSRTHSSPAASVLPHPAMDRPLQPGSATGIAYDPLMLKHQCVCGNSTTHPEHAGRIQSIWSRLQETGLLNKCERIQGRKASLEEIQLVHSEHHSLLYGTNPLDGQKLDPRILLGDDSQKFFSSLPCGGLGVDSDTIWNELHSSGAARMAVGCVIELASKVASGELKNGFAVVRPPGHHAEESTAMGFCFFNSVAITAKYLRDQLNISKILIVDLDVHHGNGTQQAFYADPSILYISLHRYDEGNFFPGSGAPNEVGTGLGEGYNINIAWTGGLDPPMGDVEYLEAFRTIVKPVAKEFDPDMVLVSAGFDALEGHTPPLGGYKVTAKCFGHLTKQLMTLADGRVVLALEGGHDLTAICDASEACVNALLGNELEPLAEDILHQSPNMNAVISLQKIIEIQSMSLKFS

SF-268 = experiment: NCI-60 antiproliferative screening; type: cell-based; conditions: Homo sapiens, SF-268, read-out: percent inhibition
EKVX = experiment: NCI-60 antiproliferative screening; type: cell-based; conditions: Homo sapiens, read-out: percent inhibition
MDA-MB-468 = experiment: NCI-60 antiproliferative screening; type: cell-based; conditions: Homo sapiens, MDA-MB-468, read-out: percent inhibition
COLO 205 = experiment: NCI-60 antiproliferative screening; type: cell-based; conditions: Homo sapiens, COLO 205, read-out: percent inhibition
M14 = experiment: NCI-60 antiproliferative screening; type: cell-based; conditions: Homo sapiens, M14, read-out: percent inhibition
SF-295 = experiment: NCI-60 antiproliferative screening; type: cell-based; conditions: Homo sapiens, SF-295, read-out: percent inhibition
HS 578T = experiment: NCI-60 antiproliferative screening; type: cell-based; conditions: Homo sapiens, read-out: percent inhibition

- IC50 (HDAC3): 0.0321 ± 0.00144 µM
- IC50 (HDAC7): > 50 µM
- activity for HDAC7 (in words) (HDAC7): no activity
- IC50 (HDAC4): > 50 µM
- activity for HDAC4 (in words) (HDAC4): no activity
- IC50 (HDAC9): > 50 µM
- activity for HDAC9 (in words) (HDAC9): no activity
Structure (SMILES): COc1ccc(CN2[C@@H](C(=O)NCCCCCCC(=O)NO)Cc3c([nH]c4ccccc34)[C@@H]2C2CC2)cc1 [Compound 13d, (1S,3R)-1-Cyclopropyl-N-(7-(hydroxyamino)-7-oxoheptyl)-2-(4-methoxybenzyl)-2,3,4,9-tetrahydro-1H-pyrido[3,4-b]indole-3-carboxamide]
- inhibition at 10 µM (RPMI-8226): 84.3%
- inhibition at 10 µM (HL60): 96.6%
- inhibition at 10 µM (NCI-H522): 100%
- inhibition at 10 µM (SK-OV-3): 100%
- inhibition at 10 µM (K-562): 92.5%
- inhibition at 10 µM (HCT-116): 97.9%
- inhibition at 10 µM (T-47D): 100%
- inhibition at 10 µM (HT29): 93.7%
- inhibition at 10 µM (ACHN): 99.3%
- inhibition at 10 µM (SF-539): 97.1%
- inhibition at 10 µM (NCI-H23): 100%
- inhibition at 10 µM (SK-MEL-2): 100%
- inhibition at 10 µM [1]: > 80%
- inhibition at 10 µM (SK-MEL-5): 100%
- inhibition at 10 µM (LOX IMVI): 100%
- inhibition at 10 µM (SNB-19): 93.3%
- inhibition at 10 µM (HCT-15): 91.2%
- inhibition at 10 µM (SK-MEL-28): 90.2%
- inhibition at 10 µM (A549/ATCC): 82.7%
- inhibition at 10 µM (SN12C): 92.2%
- inhibition at 10 µM (MALME-3M): 98.5%
- inhibition at 10 µM (HCC-2998): 100%
- inhibition at 10 µM (UO-31): 92.3%
- inhibition at 10 µM (SF-268): 85.5%
- inhibition at 10 µM (EKVX): 83.2%
- inhibition at 10 µM (MDA-MB-468): 95.9%
- inhibition at 10 µM (COLO 205): 100%
- inhibition at 10 µM (M14): 82.4%
- inhibition at 10 µM (SF-295): 100%
- inhibition at 10 µM (HS 578T): 100%
